Broadly, the MIC is the lowest concentration found to suppress growth.

The text below walks through data of article PMC10535717, “A Novel Antimicrobial Peptide, Dermaseptin-SS1, with Anti-Proliferative Activity, Isolated from the Skin Secretion of Phyllomedusa tarsius” (Molecules, 2023).

Ends that are not written are not given here.

The test system of one data set is K. pneumoniae ATCC 43816. Format: cell-based, Klebsiella pneumoniae. From the text: (§1) The anti-planktonic microorganism efficacy of the peptides was investigated via minimal bacterial inhibitory concentration (MIC) and minimal bactericidal concentration (MBC) assays. Eight types of microorganisms, including Gram-positive bacteria, Staphylococcus aureus (ATCC CRM 6538), Methicillin-resistant Staphylococcus aureus (NCTC 12493), and Enterococcus faecium (NCTC 12697), Gram-negative bacteria, Escherichia coli (ATCC CRM 8739, ATCC BAA 2340, ATCC 13846, ATCC BAA 2469, and ATCC BAA 2471), Klebsiella pneumoniae (ATCC 43816), Pseudomonas aeruginosa (ATCC CRM 9027) and Acinetobacter baumannii (ATCC BAA 747) and a yeast, Candida albicans (ATCC CRM 10231) were utilized to test the antimicrobial activity of peptides.
(§2) For the MIC assay, microorganisms were inoculated with peptides in a 96-well plate. Nutrient broth (NB) was applied for MRSA, E. coli, K. pneumoniae, and P. aeruginosa, tryptic soy broth (TSB) was applied for S. aureus, E. faecium, and A. baumannii, and yeast extract peptone dextrose broth (YPD-B) was used for C. albicans. The microorganisms were cultured (bacteria: 37 °C; yeast: 26 °C) overnight at 120 rpm and subcultured to achieve the logarithmic growth stage (5 × 10^5 CFU/mL), as confirmed by viable cell counts. After that, 99 µL of the subculture and 1 µL of the peptide were added to the 96-well plate. The final concentration of peptides ranged from 128 to 1 µmol/L (µM) using a 2-fold dilution. In addition, four other groups were established simultaneously at the commencement of the test: a growth control group, a vehicle control group (Dimethyl Sulphoxide, DMSO), a positive control group utilizing Norfloxacin at a concentration of 2 mg/mL for bacteria, and Amphotericin B. at a concentration of 1 mg/mL for yeast, and a blank control group (sterile NB/TSB/YPD-B). The MIC values were measured after overnight incubation at 37/26 °C. The optical density (OD) values were analysed at 550 nm using a Synergy HT plate reader (BioTek, Washington, USA), and were calculated using the following equation:(1) Cell Viability %=[(As−A0)/(Ag−A0)]×100% where As is the absorbance value of the sample group, A0 is the average of the absorbance values of the blank control, and Ag is the average of the absorbance values of the growth control. For the MBC assay, 10 µL of the inhibited cultures on the 96-well plate were transferred onto a corresponding medium agar plate and incubated overnight at 37/26 °C to measure MBC values. The results were obtained from three independent assays.

Data set [1] concerns C. albicans ATCC CRM 10231. Format: cell-based, Candida albicans.
Text: as §1, §2

A further data set deals with horse erythrocytes. As to the kind of experiment: Haemolysis activity. Format: cell-based. Conditions: concentration causing 50% haemolysis; 4% (v/v) horse red blood cells in PBS, peptide 128 to 1 µM, 37 °C 2 h, OD 570 nm, 1% Triton X-100 positive control, three separate assays. How it is done:
To start, fresh defibrinated horse blood (TCS Biosciences Ltd., Buckingham, UK) was washed with PBS solution to obtain a clear supernatant. Then, a 4% (v/v) suspension of red blood cells was made in PBS. After this, 100 µL of the peptide solutions were incubated with 100 µL of the suspension of red blood cells in 2 mL centrifuge tubes at 37 °C for 2 h. The ultimate concentration of peptides ranged from 128 to 1 µM obtained by a 2-fold dilution. Also, two other groups were set simultaneously, including a positive control group of 1% Triton X-100 and a blank control group of phosphate-buffered saline (PBS). After incubation and centrifugation at 900× g for 10 min, a volume of 100 µL of the resulting supernatant from each specimen was carefully transferred to individual wells of the 96-well plate. Subsequently, the OD values were analysed using a Synergy HT plate reader (BioTek, USA) at a wavelength of 570 nm using the following equation:(2) Haemolysis Activity %=[(As−A0)/(Ap−A0)]×100% where As is the absorbance value of the supernatant of the peptide group, A0 is the average absorbance value of the blank control, and Ap is the average absorbance value of the positive control. The data were obtained from three separate assays.

A further data set concerns E. coli ATCC CRM 8739. Format: cell-based, Escherichia coli.
Text: as §1, §2

For a further data set, the system named is S. aureus ATCC CRM 6538. Format: cell-based, Staphylococcus aureus.
Text: as §1, §2

For data set [2], the system named is A. baumannii ATCC BAA 747. Format: cell-based, Acinetobacter baumannii.
Text: as §1, §2

Data set [3] relates to P. aeruginosa ATCC CRM 9027. Format: cell-based, Pseudomonas aeruginosa.
Text: as §1, §2

In another data set the test system is MRSA NCTC 12493. Format: cell-based, Methicillin-resistant Staphylococcus aureus.
Text: as §1, §2

A further data set relates to Gram-positive bacteria. Put plainly: Geometric mean of MICs and therapeutic index, Gram +. Format: cell-based. The following applies: geometric mean of MICs of Table 3; 256.00 μM used where no activity at 128.00 μM.
Text: as §1
(§3) For the MIC assay, microorganisms were inoculated with peptides in a 96-well plate. […] The MIC values were measured after overnight incubation at 37/26 °C. The optical density (OD) values were analysed at 550 nm using a Synergy HT plate reader (BioTek, Washington, USA), and were calculated using the following equation:(1) Cell Viability %=[(As−A0)/(Ag−A0)]×100% where As is the absorbance value of the sample group, A0 is the average of the absorbance values of the blank control, and Ag is the average of the absorbance values of the growth control. […]

The subject of another data set is E. faecalis NCTC 12697. Format: cell-based.
The next data set relates to Gram-negative bacteria. Put plainly: Geometric mean of MICs and therapeutic index, Gram −. Format: cell-based. The following applies: geometric mean of MICs of Table 3; 256.00 μM used where no activity at 128.00 μM.
Text: as §1, §3

Take “ALWKSILKNVGKVLNEINQIVQ-NH2 [Peptide L2V]”: the MBC in the data set on K. pneumoniae ATCC 43816 was over 128 µM; in [1] (ATCC CRM 10231), over 128 µM; in the data set with E. coli ATCC CRM 8739 it was over 128 µM; in the data set on S. aureus ATCC CRM 6538, over 128 µM; in data set [2], 4 µM; in data set [3], over 128 µM. Besides, the MBC in the data set on MRSA NCTC 12493 is 4 µM; against E. faecalis NCTC 12697, over 128 µM. In addition, the MIC was 8 µM in the data set with K. pneumoniae ATCC 43816; over 128 µM in data set [1] (ATCC CRM 10231); over 128 µM in the data set on E. coli ATCC CRM 8739; over 128 µM in the data set on S. aureus ATCC CRM 6538; 4 µM in [2]; over 128 µM in data set [3]. Besides, the results for the MIC in the data set with MRSA NCTC 12493 and in the data set with E. faecalis NCTC 12697 were 4 µM and over 128 µM, respectively. Further, the “GM Yeast” value in data set [1] (geometric mean of MICs of Table 3, 256.00 μM used where no activity at 128.00 μM) stood at 256.00 µM. In addition, the HC50 in the data set on horse erythrocytes is listed as 256.00. Further, the “GM Gram +” value in the data set on Gram-positive bacteria stood at 64.00 µM. The “GM Gram −” value in the data set with Gram-negative bacteria stood at 38.05 µM.
